{
  "source": "ChEMBL document CHEMBL1255488",
  "about": "“Semimechanistic pharmacokinetic-pharmacodynamic model with adaptation development for time-kill experiments of ciprofloxacin against Pseudomonas aeruginosa” (2010)",
  "key": {"[1]": {"system": "Pseudomonas aeruginosa", "assay": "microbe, parasite or virus in culture", "conditions": "PAO1", "description": "Antimicrobial activity against 0.12 ug/ml compound pre-treated Pseudomonas aeruginosa PAO1 by microdilution method in presence of 40 ug/ml efflux-pump inhibitor PAbetaN"}, "[2]": {"system": "Pseudomonas aeruginosa", "assay": "microbe, parasite or virus in culture", "conditions": "PAO1", "remark": "listed apart in the source", "description": "Antimicrobial activity against 0.12 ug/ml compound pre-treated Pseudomonas aeruginosa PAO1 in presence of 1 ug/ml of compound during plating experiment by microdilution method in presence of 40 ug/ml efflux-pump inhibitor PAbetaN"}, "[3]": {"system": "Pseudomonas aeruginosa", "assay": "microbe, parasite or virus in culture", "conditions": "PAO1", "remark": "listed apart in the source", "description": "Antimicrobial activity against 0.12 ug/ml compound pre-treated Pseudomonas aeruginosa PAO1 by microdilution method"}, "[4]": {"system": "Pseudomonas aeruginosa", "assay": "Antimicrobial activity against Pseudomonas aeruginosa PAO1 by microdilution method in presence of 40 ug/ml efflux-pump inhibitor PAbetaN"}, "[5]": {"system": "Pseudomonas aeruginosa", "assay": "microbe, parasite or virus in culture", "conditions": "PAO1", "remark": "listed apart in the source", "description": "Antimicrobial activity against 0.25 ug/ml compound pre-treated Pseudomonas aeruginosa PAO1 in presence of 0.25 ug/ml of compound during plating experiment by microdilution method in presence of 40 ug/ml efflux-pump inhibitor PAbetaN"}, "[6]": {"system": "Pseudomonas aeruginosa", "assay": "microbe, parasite or virus in culture", "conditions": "PAO1", "remark": "listed apart in the source", "description": "Antimicrobial activity against 0.25 ug/ml compound pre-treated Pseudomonas aeruginosa PAO1 in presence of 0.5 ug/ml of compound during plating experiment by microdilution method in presence of 40 ug/ml efflux-pump inhibitor PAbetaN"}, "[7]": {"system": "Pseudomonas aeruginosa", "assay": "microbe, parasite or virus in culture", "conditions": "PAO1", "remark": "listed apart in the source"}, "[8]": {"system": "Pseudomonas aeruginosa", "assay": "microbe, parasite or virus in culture", "conditions": "PAO1", "remark": "listed apart in the source", "description": "Antimicrobial activity against 0.25 ug/ml compound pre-treated Pseudomonas aeruginosa PAO1 in presence of 0.25 ug/ml of compound during plating experiment by microdilution method"}, "[9]": {"system": "Pseudomonas aeruginosa", "assay": "Antimicrobial activity against Pseudomonas aeruginosa PAO7H by microdilution method"}, "[10]": {"system": "Pseudomonas aeruginosa", "assay": "Antimicrobial activity against Pseudomonas aeruginosa PAO7H by microdilution method in presence of 40 ug/ml efflux-pump inhibitor PAbetaN"}, "[11]": {"system": "Pseudomonas aeruginosa", "assay": "microbe, parasite or virus in culture", "conditions": "PAO1", "remark": "listed apart in the source", "description": "Antimicrobial activity against 0.25 ug/ml compound pre-treated Pseudomonas aeruginosa PAO1 by microdilution method"}, "[12]": {"system": "Pseudomonas aeruginosa", "assay": "microbe, parasite or virus in culture", "conditions": "PAO1", "remark": "listed apart in the source", "description": "Antimicrobial activity against 0.12 ug/ml compound pre-treated Pseudomonas aeruginosa PAO1 in presence of 0.25 ug/ml of compound during plating experiment by microdilution method"}, "[13]": {"system": "Pseudomonas aeruginosa", "assay": "microbe, parasite or virus in culture", "conditions": "PAO1", "remark": "listed apart in the source", "description": "Antimicrobial activity against 0.12 ug/ml compound pre-treated Pseudomonas aeruginosa PAO1 in presence of 2 ug/ml of compound during plating experiment by microdilution method in presence of 40 ug/ml efflux-pump inhibitor PAbetaN"}, "[14]": {"system": "Pseudomonas aeruginosa", "assay": "microbe, parasite or virus in culture", "conditions": "PAO1", "remark": "listed apart in the source", "description": "Antimicrobial activity against 0.12 ug/ml compound pre-treated Pseudomonas aeruginosa PAO1 in presence of 0.5 ug/ml of compound during plating experiment by microdilution method in presence of 40 ug/ml efflux-pump inhibitor PAbetaN"}, "[15]": {"system": "Pseudomonas aeruginosa", "assay": "microbe, parasite or virus in culture", "conditions": "PAO1", "remark": "listed apart in the source", "description": "Antimicrobial activity against 0.25 ug/ml compound pre-treated Pseudomonas aeruginosa PAO1 in presence of 1 ug/ml of compound during plating experiment by microdilution method"}, "[16]": {"system": "Pseudomonas aeruginosa", "assay": "microbe, parasite or virus in culture", "conditions": "PAO1", "remark": "listed apart in the source", "description": "Antimicrobial activity against 0.25 ug/ml compound pre-treated Pseudomonas aeruginosa PAO1 in presence of 1 ug/ml of compound during plating experiment by microdilution method in presence of 40 ug/ml efflux-pump inhibitor PAbetaN"}, "[17]": {"system": "Pseudomonas aeruginosa", "assay": "microbe, parasite or virus in culture", "conditions": "PAO1", "remark": "listed apart in the source", "description": "Antimicrobial activity against 0.25 ug/ml compound pre-treated Pseudomonas aeruginosa PAO1 in presence of 0.5 ug/ml of compound during plating experiment by microdilution method"}, "[18]": {"system": "Pseudomonas aeruginosa", "assay": "microbe, parasite or virus in culture", "conditions": "PAO1", "remark": "listed apart in the source", "description": "Antimicrobial activity against 0.12 ug/ml compound pre-treated Pseudomonas aeruginosa PAO1 in presence of 0.25 ug/ml of compound during plating experiment by microdilution method in presence of 40 ug/ml efflux-pump inhibitor PAbetaN"}},
  "data": [
    {"smiles": "O=C(O)c1cn(C2CC2)c2cc(N3CCNCC3)c(F)cc2c1=O", "note": "[CIPROFLOXACIN]", "values": [
      {"measurement": "MIC", "setting": "[1]", "value": 0.06, "unit": "µg/mL"},
      {"measurement": "MIC", "setting": "[2]", "value": 0.12, "unit": "µg/mL"},
      {"measurement": "MIC", "setting": "[3]", "value": 1, "unit": "µg/mL"},
      {"measurement": "MIC", "setting": "[4]", "value": 0.06, "unit": "µg/mL"},
      {"measurement": "MIC", "setting": "[5]", "value": 0.12, "unit": "µg/mL"},
      {"measurement": "MIC", "setting": "[6]", "value": 0.12, "unit": "µg/mL"},
      {"measurement": "MIC", "setting": "[7]", "value": 0.06, "unit": "µg/mL"},
      {"measurement": "MIC", "setting": "[8]", "value": 1, "unit": "µg/mL"},
      {"measurement": "MIC", "setting": "[9]", "value": 1, "unit": "µg/mL"},
      {"measurement": "MIC", "setting": "[10]", "value": 0.06, "unit": "µg/mL"},
      {"measurement": "MIC", "setting": "[11]", "value": 1, "unit": "µg/mL"},
      {"measurement": "MIC", "setting": "[12]", "value": 1, "unit": "µg/mL"},
      {"measurement": "MIC", "setting": "[13]", "value": 0.12, "unit": "µg/mL"},
      {"measurement": "MIC", "setting": "[14]", "value": 0.12, "unit": "µg/mL"},
      {"measurement": "MIC", "setting": "[15]", "value": 1, "unit": "µg/mL"},
      {"measurement": "MIC", "setting": "[16]", "value": 0.12, "unit": "µg/mL"},
      {"measurement": "MIC", "setting": "[17]", "value": 1, "unit": "µg/mL"},
      {"measurement": "MIC", "setting": "[18]", "value": 0.12, "unit": "µg/mL"}
    ]}
  ]
}
